From patent US10342796B2, “Acrylanilide derivative, preparation method, and applications thereof in pharmacy” (Ancureall Pharmaceutical (Shanghai) Co., Ltd., priority 2015, dated 2019)
Like-named read-outs stand apart in the source and are kept apart here.

Tests used:
[1] = system: SW48 (EGFR G719S positive); test: Growth inhibition GI50 in vitro (CCK8/MTT, 72 h); assay type: cell-based; conditions: Homo sapiens
Protocol: PC-9ER is an acquired Erlotinib resistance cell line of PC-9 cells developed by the investor. […] The four cell lines above were cultured with 1×RPMI1640 complete medium (supplement with 10% FBS). Human colon cancer cell line SW48 (EGFR G719S positive, ATCC). was cultured with L15 complete medium (10% FB S).
The suspension cells were collected by centrifugation. The supernatant was discard and the cell pellet was resuspended and counted. Different cell concentrations (5˜10×10^4 cells/mL) were prepared according to the growth cycle of each cell line and then seeded on a 96-well plate (Corning), 100 μL/well. The cells were incubated over night at 37° C., 5% CO2. The compounds were added to the cells on the second day with 2 wells in parallel. The final concentration of organic solvent shall not exceed 1%. The cells were continually incubated for 72 h, and then subjected to MTT assay.
The present compounds and the reference compounds were dissolved with DMSO (Sigma), respectively. […] The storage concentration of compounds was 10 mM and kept at −20° C. They were diluted by 2 times or 10 times with serial dilution before using.
Dojindo CCK8 reagent kit was used as MTT assay. […] FC meter was used as microplate reader.
Adherent cell culture medium was discard and immediately replaced with fresh prepared medium which contains 10% CCK8 reagent (100 μL/well). For the suspension cells, CCK8 was directly added to 10% of the final concentration. The cells were continually incubated for 1˜4 h. When the color of control wells turned to dark yellow, the absorption value was measured at OD450 nm. The cell growth rate was calculated according to the following formula: cell growth rate (%)=100*(T−T0)/(C−T0), T=optical density of drug treatment cell well—optical density of blank control well; T0=optical density of cell well before drug treatment—optical density of blank control well; C=optical density of cell well of solvent control group—optical density of blank control well. […] The experiment was independently repeated 1˜3 times, and subject to biological statistical analysis.
Each compound started at 1000 nM as an initial concentration and was diluted by […] with serial dilution to 0.03 nM.

[2] = system: SNU1040 (HER2 V777M positive); test: Growth inhibition GI50 in vitro (CCK8/MTT, 72 h); assay type: cell-based; conditions: Homo sapiens, read-out: GI50 SNU-1040 (HER2 V777M)
[3] = Table 16, 1000 nM to 0.03 nM serial dilution

SMILES	GI50 ([1]; SW48, read-out: GI50 SW48 (EGFR G719S)) [nM]	GI50 [2] [nM]	GI50 [2, 3] [nM]	GI50 ([1]; SW48, Table 15, 1000 nM to 0.03 nM serial dilution, read-out: GI50 SW48 (EGFR G719S)) [nM]
C=CC(=O)Nc1cc(Nc2nccc(-c3cn(C)c4ccccc34)n2)c(OC)cc1N(C)CCN(C)C [AZD9291, reference compound]	156	156		
C=CC(=O)Nc1cc(Nc2nccc(-n3ccc4c(OC)cccc43)n2)c(OC)cc1N(C)CCN(C)C [Compound 99, N-(5-(4-(4-methoxyl-1H-indol-1-yl)-pyrimidin-2-ylamino)-2-(2-(dimethylamino-ethyl)-methyl-amino)-4-methoxyl-phenyl)-acrylamide]			19.5	
C=CC(=O)Nc1cc(Nc2cc(Nc3cc(OC)c(Cl)cc3Cl)ncn2)c(OC)cc1N(C)CCN(C)C [Compound 136, N-(5-(6-(2,4-dichloro-5-methoxyl-phenylamino)-pyrimidin-4-ylamino)-2-((2-dimethylamino-ethyl)-methyl-amino)-4-methoxyl-phenyl)-acrylamide]			16.2	
C=CC(=O)Nc1cc(Nc2nccc(-n3ccc4c(OCCOC)cccc43)n2)c(OC)cc1N(C)CCN(C)C [Compound 205, N-(5-(4-(4-(2-methoxyl-ethoxyl)-1H-indol-1-yl)-pyrimidin-2-ylamino)-2-(2-(dimethylamino-ethyl)-methyl-amino)-4-methoxyl-phenyl)-acrylamide]			14.3	
C=CC(=O)Nc1cc(Nc2cc(Nc3cc(F)c(OC)c(Cl)c3)ncn2)c(OC)cc1N(C)CCN(C)C [Compound 236, N-(5-(6-(3-chloro-5-fluoro-4-methoxyphenylamino)-pyrimidin-4-yl-amino)-2-((2-dimethylamino-ethyl)-methyl-amino)-4-methoxyl-phenyl)-acrylamide]			5.42	4.23
